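Five concentrations, 48 hours, 96-well plates. GI50 marks 50% less growth. TGI denotes the concentration required for complete inhibition of growth.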
Assays:
Test in all cases: growth of human tumour cells (NCI), 48 h
786-0 renal = tested on: 786-0 renal
A498 renal = tested on: A498 renal
A549 NSCLC = tested on: A549 NSCLC
ACHN renal = tested on: ACHN renal
BT-549 breast = tested on: BT-549 breast
CAKI-1 renal = tested on: CAKI-1 renal
CCRF-CEM leukemia = tested on: CCRF-CEM leukemia
COLO 205 colon = tested on: COLO 205 colon
DU-145 prostate = tested on: DU-145 prostate
EKVX NSCLC = tested on: EKVX NSCLC
HCC-2998 colon = tested on: HCC-2998 colon
HCT-116 colon = tested on: HCT-116 colon
HCT-15 colon = tested on: HCT-15 colon
HL-60(TB) leukemia = tested on: HL-60(TB) leukemia
HOP-62 NSCLC = tested on: HOP-62 NSCLC
HOP-92 NSCLC = tested on: HOP-92 NSCLC
HS 578T breast = tested on: HS 578T breast
HT29 colon = tested on: HT29 colon
IGROV1 ovarian = tested on: IGROV1 ovarian
K-562 leukemia = tested on: K-562 leukemia
KM12 colon = tested on: KM12 colon
LOX IMVI melanoma = tested on: LOX IMVI melanoma
M14 melanoma = tested on: M14 melanoma
MALME-3M melanoma = tested on: MALME-3M melanoma
MCF7 breast = tested on: MCF7 breast
MDA-MB-231 breast = tested on: MDA-MB-231 breast
MDA-MB-435 = tested on: MDA-MB-435
MOLT-4 leukemia = tested on: MOLT-4 leukemia
NCI-H226 lung = tested on: NCI-H226 lung
NCI-H23 lung = tested on: NCI-H23 lung
NCI-H460 lung = tested on: NCI-H460 lung
NCI-H522 lung = tested on: NCI-H522 lung
NCI/ADR-RES ovarian = tested on: NCI/ADR-RES ovarian
OVCAR-3 ovarian = tested on: OVCAR-3 ovarian
OVCAR-4 ovarian = tested on: OVCAR-4 ovarian
OVCAR-5 ovarian = tested on: OVCAR-5 ovarian
OVCAR-8 ovarian = tested on: OVCAR-8 ovarian
PC-3 prostate = tested on: PC-3 prostate
RPMI-8226 leukemia = tested on: RPMI-8226 leukemia
RXF 393 renal = tested on: RXF 393 renal
SF-268 CNS = tested on: SF-268 CNS
SF-295 CNS = tested on: SF-295 CNS
SF-539 CNS = tested on: SF-539 CNS
SK-MEL-2 melanoma = tested on: SK-MEL-2 melanoma
SK-MEL-28 melanoma = tested on: SK-MEL-28 melanoma
SK-MEL-5 melanoma = tested on: SK-MEL-5 melanoma
SK-OV-3 ovarian = tested on: SK-OV-3 ovarian
SN12C renal = tested on: SN12C renal
SNB-19 CNS = tested on: SNB-19 CNS
SNB-75 CNS = tested on: SNB-75 CNS
SR leukemia = tested on: SR leukemia
SW-620 colon = tested on: SW-620 colon
T-47D breast = tested on: T-47D breast
TK-10 renal = tested on: TK-10 renal
U251 CNS = tested on: U251 CNS
UACC-257 melanoma = tested on: UACC-257 melanoma
UACC-62 melanoma = tested on: UACC-62 melanoma
UO-31 renal = tested on: UO-31 renal

## O=C(NCCCc1cn[nH]c1)c1ccc(-c2ccncc2)c(C#Cc2ccc(F)cc2)c1
786-0 renal
  GI50: 3.66 µM
  TGI: > 64.1 µM
A498 renal
  GI50: 20.1 µM
  TGI: > 68.5 µM
A549 NSCLC
  GI50: 0.481 µM
  TGI: > 100 µM
ACHN renal
  GI50: 6.91 µM
  TGI: > 100 µM
BT-549 breast
  GI50: 0.369 µM
  TGI: 60.9 µM
CAKI-1 renal
  GI50: 6.92 µM
  TGI: > 100 µM
CCRF-CEM leukemia
  GI50: < 0.01 µM
  TGI: > 100 µM
COLO 205 colon
  GI50: < 0.01 µM
  TGI: 46.1 µM
DU-145 prostate
  GI50: < 0.01 µM
  TGI: > 100 µM
EKVX NSCLC
  GI50: 8.39 µM
  TGI: > 100 µM
HCC-2998 colon
  TGI: 26.1 µM
HCT-116 colon
  GI50: < 0.01 µM
  TGI: 15.2 µM
HCT-15 colon
  GI50: < 0.01 µM
  TGI: > 57.9 µM
HL-60(TB) leukemia
  GI50: 1.85 µM
  TGI: 14.6 µM
HOP-62 NSCLC
  GI50: 5.49 µM
  TGI: > 64.9 µM
HOP-92 NSCLC
  GI50: 12.7 µM
  TGI: 87 µM
HS 578T breast
  GI50: 18.9 µM
  TGI: > 100 µM
HT29 colon
  GI50: < 0.01 µM
  TGI: 36.7 µM
IGROV1 ovarian
  GI50: 0.0282 µM
  TGI: > 100 µM
K-562 leukemia
  GI50: < 0.01 µM
  TGI: > 100 µM
KM12 colon
  GI50: < 0.0155 µM
  TGI: > 83.2 µM
LOX IMVI melanoma
  GI50: 0.913 µM
  TGI: 53.6 µM
M14 melanoma
  GI50: < 0.01 µM
  TGI: > 54.7 µM
MALME-3M melanoma
  GI50: 10.2 µM
  TGI: 54.2 µM
MCF7 breast
  GI50: 1.9 µM
  TGI: > 70.2 µM
MDA-MB-231 breast
  GI50: 16.4 µM
  TGI: > 100 µM
MDA-MB-435
  GI50: < 0.01 µM
  TGI: > 87.8 µM
MOLT-4 leukemia
  GI50: 1.02 µM
  TGI: > 57 µM
NCI-H226 lung
  GI50: 6.2 µM
  TGI: 51.3 µM
NCI-H23 lung
  GI50: 14.5 µM
  TGI: > 100 µM
NCI-H460 lung
  GI50: 0.145 µM
  TGI: 41.9 µM
NCI-H522 lung
  GI50: < 0.0406 µM
  TGI: 53.2 µM
NCI/ADR-RES ovarian
  GI50: < 0.0116 µM
  TGI: > 100 µM
OVCAR-3 ovarian
  GI50: 6.27 µM
  TGI: > 100 µM
OVCAR-4 ovarian
  GI50: 11.6 µM
  TGI: > 100 µM
OVCAR-5 ovarian
  GI50: 0.122 µM
  TGI: > 100 µM
OVCAR-8 ovarian
  GI50: < 0.01 µM
  TGI: > 100 µM
PC-3 prostate
  GI50: < 0.01 µM
  TGI: 76.8 µM
RPMI-8226 leukemia
  GI50: < 0.0113 µM
  TGI: 9.54 µM
RXF 393 renal
  GI50: 3.58 µM
  TGI: 19.8 µM
SF-268 CNS
  GI50: 58.8 µM
  TGI: > 100 µM
SF-295 CNS
  TGI: 47.9 µM
SF-539 CNS
  GI50: < 0.01 µM
  TGI: 14.5 µM
SK-MEL-2 melanoma
  GI50: 11.5 µM
  TGI: > 74.1 µM
SK-MEL-28 melanoma
  GI50: 14.4 µM
  TGI: > 100 µM
SK-MEL-5 melanoma
  GI50: 2.3 µM
  TGI: 16.6 µM
SK-OV-3 ovarian
  GI50: 8.96 µM
  TGI: > 100 µM
SN12C renal
  GI50: < 0.01 µM
  TGI: > 100 µM
SNB-19 CNS
  GI50: 0.229 µM
  TGI: > 100 µM
SNB-75 CNS
  GI50: 8.82 µM
  TGI: > 100 µM
SR leukemia
  GI50: 2.53 µM
  TGI: > 100 µM
SW-620 colon
  GI50: < 0.01 µM
  TGI: > 100 µM
T-47D breast
  TGI: 11 µM
TK-10 renal
  GI50: 12.8 µM
  TGI: > 100 µM
U251 CNS
  GI50: 0.243 µM
  TGI: > 100 µM
UACC-257 melanoma
  GI50: 17.6 µM
  TGI: > 100 µM
UACC-62 melanoma
  GI50: 16.5 µM
  TGI: > 70.1 µM
UO-31 renal
  GI50: 3.4 µM
  TGI: > 67.2 µM

## CN=C1C=CC(=C(c2ccc(N(C)C)cc2)c2ccc(N(C)C)cc2)C=C1
786-0 renal
  GI50: 0.292 µM
  TGI: 1.18 µM
A498 renal
  GI50: 0.193 µM
  TGI: 0.734 µM
A549 NSCLC
  GI50: 0.048 µM
  TGI: 1.38 µM
ACHN renal
  GI50: 0.326 µM
  TGI: 1.33 µM
BT-549 breast
  GI50: 0.265 µM
  TGI: 1.28 µM
CAKI-1 renal
  GI50: 0.448 µM
  TGI: 2.53 µM
CCRF-CEM leukemia
  GI50: 0.256 µM
  TGI: 7.57 µM
COLO 205 colon
  GI50: 0.184 µM
  TGI: 0.524 µM
DU-145 prostate
  GI50: 0.274 µM
  TGI: 1.71 µM
EKVX NSCLC
  GI50: 0.237 µM
  TGI: 2.62 µM
HCC-2998 colon
  GI50: 0.309 µM
  TGI: 1.27 µM
HCT-116 colon
  GI50: 0.116 µM
  TGI: 1.09 µM
HCT-15 colon
  GI50: 0.367 µM
  TGI: 6.07 µM
HL-60(TB) leukemia
  GI50: 0.217 µM
  TGI: 0.519 µM
HOP-62 NSCLC
  GI50: 0.0765 µM
  TGI: 1.48 µM
HOP-92 NSCLC
  GI50: 0.205 µM
  TGI: 0.633 µM
HS 578T breast
  GI50: 0.233 µM
  TGI: 3.02 µM
HT29 colon
  GI50: 0.105 µM
  TGI: 0.496 µM
IGROV1 ovarian
  GI50: 0.42 µM
  TGI: 6.38 µM
K-562 leukemia
  GI50: 0.0784 µM
  TGI: 1.1 µM
KM12 colon
  GI50: 0.165 µM
  TGI: 0.673 µM
LOX IMVI melanoma
  GI50: 0.201 µM
  TGI: 1.04 µM
M14 melanoma
  GI50: 0.28 µM
  TGI: 1.08 µM
MALME-3M melanoma
  GI50: 0.406 µM
  TGI: 1.95 µM
MCF7 breast
  GI50: 0.308 µM
  TGI: 1.05 µM
MDA-MB-231 breast
  GI50: 0.267 µM
  TGI: 0.785 µM
MDA-MB-435
  GI50: 0.251 µM
  TGI: 0.66 µM
MOLT-4 leukemia
  GI50: 0.369 µM
  TGI: 6.98 µM
NCI-H23 lung
  GI50: 0.224 µM
  TGI: 1.02 µM
NCI-H460 lung
  GI50: 0.13 µM
  TGI: 0.909 µM
NCI-H522 lung
  GI50: 0.253 µM
  TGI: 0.801 µM
NCI/ADR-RES ovarian
  GI50: 1.5 µM
  TGI: 4.83 µM
OVCAR-3 ovarian
  GI50: 0.295 µM
  TGI: 0.936 µM
OVCAR-4 ovarian
  GI50: 0.378 µM
  TGI: 2.7 µM
OVCAR-5 ovarian
  GI50: 0.312 µM
  TGI: 3.43 µM
PC-3 prostate
  GI50: 0.286 µM
  TGI: 1.09 µM
RPMI-8226 leukemia
  GI50: 0.0543 µM
  TGI: 0.255 µM
RXF 393 renal
  GI50: 0.207 µM
  TGI: 0.583 µM
SF-268 CNS
  GI50: 0.25 µM
  TGI: 1.54 µM
SF-295 CNS
  GI50: 0.147 µM
  TGI: 0.473 µM
SF-539 CNS
  GI50: 0.319 µM
  TGI: 1.84 µM
SK-MEL-2 melanoma
  GI50: 0.202 µM
  TGI: 0.462 µM
SK-MEL-28 melanoma
  GI50: 0.482 µM
  TGI: 2.07 µM
SK-MEL-5 melanoma
  GI50: 0.182 µM
  TGI: 0.364 µM
SK-OV-3 ovarian
  GI50: 0.261 µM
  TGI: 0.828 µM
SN12C renal
  GI50: 0.163 µM
  TGI: 3.04 µM
SNB-19 CNS
  GI50: 0.324 µM
  TGI: 1.94 µM
SNB-75 CNS
  GI50: 0.295 µM
  TGI: 1.04 µM
SR leukemia
  GI50: 0.206 µM
  TGI: 0.551 µM
SW-620 colon
  GI50: 0.185 µM
  TGI: 1.35 µM
T-47D breast
  GI50: 0.292 µM
  TGI: 2.1 µM
TK-10 renal
  GI50: 0.218 µM
  TGI: 1.14 µM
U251 CNS
  GI50: 0.0582 µM
  TGI: 0.682 µM
UACC-257 melanoma
  GI50: 0.249 µM
  TGI: 0.797 µM
UACC-62 melanoma
  GI50: 0.297 µM
  TGI: 1.39 µM
UO-31 renal
  GI50: 0.317 µM
  TGI: 1.21 µM

— PubChem BioAssay (NCI)
